Marks after values point to notes of the source that are not given here.

Here are results for 1 compound from patent publication US10912741B2, “Prevention of liver cancer with safranal-based formulations” (United Arab Emirates University, priority 2019, dated 2021).

The subject of test [1] is ED-2 (Kupffer cells). Kind of test: Immunohistochemical staining of liver sections, ED-2 positive cells (Kupffer cells). The class given is in vivo, albino Wistar rats. The settings on record: mean±SEM, 8 rats. How it is done:
(§1) The experimental hepatocarcinogenesis model was developed according to a protocol by Espandiaria et al. that was adapted for our purposes. To initiate and promote hepatocarcinogenesis, diethylnitrosamine (DEN) and 2-acetylaminofluorene (2-AAF) were used, respectively. For hepatocarcinogenesis initiation in this model, a single DEN dose (200 mg/kg b.wt.) dissolved in saline was injected intraperitoneally. After initiation, all rats underwent one period of 5-days fasting, as mitotic proliferative stimuli. To promote hepatocarcinogenesis, 2-acetylaminofluorene (2-AAF) was introduced in the form of six daily intragastric doses (30 mg/kg in 1% Tween 80); two weeks after DEN treatment.
(§2) Safranal at doses of 25 mg/kg by weight (b.wt.) and 50 mg/kg b.wt, was administrated orally to rats. These doses have been reported to suppress chemically-induced oxidative damage in rats. A total of 40 adult male albino Wistar rats were randomly divided into […] (n=8) and were subjected to different treatments. Group 1 (control) was orally administered distilled water (5 ml/kg b.wt.) throughout the experimental duration and were injected with a single dose of saline. Group 2 (Safranal only) was subjected to a safranal dose (50 mg/kg b.wt.) through oral administration for the duration of the experimental period. Hepatocarcinogenesis was induced by DEN and promoted by 2-AAF, as reported previously, in group 3 (HCC). Rats in protective groups (groups 4-5) were treated with low/high doses of saffron-based safranal suspensions, at the beginning of promotion periods and continued for 12 weeks. The low dosage treatment with safranal consisted of 25 mg/kg b.wt., and the high dosage treatment consisted of 50 mg/kg b.wt. The experimental design is illustrated in FIG. 1.
(§3) For immunohistochemical staining, mounted sections were immersed in sodium citrate buffer (0.1 M, pH 6) and placed in a water bath for 15 minutes to unmask antigen epitopes. […] Ten fields were randomly selected to quantify positive cells, in individual samples (400×). […]

The test system of test [2] is alveolar human lung cancer A549. The settings on record: A549 cell line, reported in the background; cited from earlier work.
The subject of test [3] is NF-kB-p65 nuclear localization. Kind of test: NF-kB-p65 nuclear localization in nuclear extracts. The class given is in vivo, albino Wistar rats. The settings on record: animal groups pre-treated with safranal (DEN-exposed).
Source text: DEN, 2-AAF, 5, 5′-dithiobis-(2-nitrobenzoic acid thiobarbituric acid, Folin's reagent, pyrogallol, SOD enzyme, H2O2, and bovine albumin were obtained from Sigma Chemical Co. (St. Louis, Mo.). Nf-kB nuclear localization assay kit was purchased from (Ser. No. 10/007,889, Cayman Chemical Company, Ann Arbor, Mich., USA).
as §1
(§4) Safranal at doses of 25 mg/kg by weight (b.wt.) and 50 mg/kg b.wt, was administrated orally to rats. These doses have been reported to suppress chemically-induced oxidative damage in rats. A total of 40 adult male albino Wistar rats were randomly divided into […] (n=8) and were subjected to different treatments. […]

Test [4] deals with NF-kB-p65. Briefly: Immunohistochemical staining of liver sections, NF-kB-p65 positive cells. The format is in vivo, albino Wistar rats. The settings on record: low/high doses of safranal, DEN-exposed rats, vs HCC group. On the procedure:
as §1, §4, §3

Test [5] relates to foci of altered hepatocytes (FAH). Briefly: Histopathology (H&E) of liver, foci of altered hepatocytes. The class given is in vivo, albino Wistar rats. How it is done:
as §1
(§5) Safranal at doses of 25 mg/kg by weight (b.wt.) and 50 mg/kg b.wt, was administrated orally to rats. These doses have been reported to suppress chemically-induced oxidative damage in rats. A total of 40 adult male albino Wistar rats were randomly divided into […] (n=8) and were subjected to different treatments. Group 1 (control) was orally administered distilled water (5 ml/kg b.wt.) throughout the experimental duration and were injected with a single dose of saline. Group 2 (Safranal only) was subjected to a safranal dose (50 mg/kg b.wt.) through oral administration for the duration of the experimental period. […]

The test system of test [6] is HDAC. Kind of test: HDAC colorimetric assay in liver homogenate. The format is in vivo, albino Wistar rats. On the procedure: as §1, §5
Test [7] concerns caspase-cleaved fragment of cytokeratin18 (M30 CytoDeath). Kind of test: M30 CytoDeath staining of liver sections (early apoptosis). The format is in vivo, albino Wistar rats. On the procedure: as §1
Safranal at doses of 25 mg/kg by weight (b.wt.) and 50 mg/kg b.wt, was administrated orally to rats. These doses have been reported to suppress chemically-induced oxidative damage in rats. […]
TUNEL assay was performed for the purpose of assessing apoptosis. […] DNA fragmentation, a key indicator of apoptosis, is detected using this kit. […]
as §3

For test [8], the system named is caspase-3 and -7 in HepG2 cells. Briefly: Caspase-3 and -7 assay (Caspase-Glo 3/7). The format is cell-based, human. The settings on record: 1 mM, 48 hours. On the procedure: HepG2, were cultured in RPMI 1640 medium (HyClone, USA) and 1% of 100 U/ml penicillin and 100 ug/ml streptomycin (Sigma, USA) supplemented with 10% fetal bovine serum (Sigma, USA) at 37° C. in a humidified 5% CO2 atmosphere. Cells were sub-cultured each 4-6 days using trypsin 0.25% (Hyclone, USA).
HepG2 cells were seeded in 96-well plates at the density of 10000 cells/well and grown in 100 uL of complete growth medium. Complete growth medium was replaced by serum-free medium after cells were allowed to attach for 24 hours; after which cells were incubated for at least 12 hours. Cells were incubated for 48 hours after treatment with various concentrations of safranal (1 mM, 0.7 mM, 0.5 mM) prepared from 20 mM stock solution. After incubation period, caspase-3 and -7 activities were measured using Caspase-Glo 3/7 luminescent assay kit according to manufacturer's instruction (Promega, USA).

For test [9], the system named is iNOS. Kind of test: Immunohistochemical staining of liver sections, iNOS positive cells. The format is in vivo, albino Wistar rats. The settings on record: mean±SEM, 8 rats. How it is done: as §1, §2, §3
The mark [10] stands for this setting: HCC (DEN/2-AAF) rats + safranal high dose 50 mg/kg b.wt. oral, 12 weeks.
The mark [11] stands for this setting: HCC (DEN/2-AAF) rats + safranal low dose 25 mg/kg b.wt. oral, 12 weeks.
Setting [12] is: safranal alone 50 mg/kg b.wt. oral, no DEN (group 2).

As for `CC1=C(C=O)C(C)(C)CC=C1` [Safranal, 2,6,6-trimethylcyclohexa-1,3-diene-1-carbaldehyde], the ED-2 positive cells was 46.44 ± 3.12^b positive cells/field in test [1] (setting [10]), 46.75 ± 3.04^b positive cells/field in test [1] (setting [11]) and 39.30 ± 1.77 positive cells/field in test [1] (setting [12]). Moreover, the apoptosis entry in test [2] is on record as “induce apoptosis”. In addition, the “NF-kB-p65 level in nuclear extracts” value in [3] was “parallel decrease in NF-kB-p65 level in nuclear extracts”. In test [4], the “number of NF-kB-p65-positive cells” value is on record as “significantly reduced the number of NF-kB-p65-positive cells”. For the same compound, the “number and size of hepatocellular nodules (FAH)” value in test [5] (protective groups, DEN-2-AAF rats + low/high doses of safranal (25/50 mg/kg b.wt.)) was “remarkably decrease in number and size”. For the same compound, the “hepatocellular nodules (FAH) in liver sections” value in [5] (treatment with safranal alone (group 2, 50 mg/kg b.wt.)) is “abolished such hepatocellular nodules almost completely”. Besides, the “HDAC activity in liver” value is recorded as “restored HDAC activity to the normal range” in [6] (low/high doses of safranal, DEN-treated (groups 4-5)) and “did not change HDAC activity” in [6] (safranal alone (group 2), compared to control). For the same compound, the “number of M30 CytoDeath-positive cells” value was “significant increase in the number of both TUNEL- and M30 CytoDeath-positive cells” in [7] (low/high doses of safranal in animals exposed to DEN, compared to group 3); “did not exhibit a notable change” in test [7] (safranal only (group 2), compared to control group). Also, the “caspase-3 and -7 activities” value in [8] was “significant increase in caspase-3 and -7 activities”. The iNOS positive cells is given as 2.57 ± 0.30^b positive cells/field in test [9] (setting [10]), 5.09 ± 0.26^a&b positive cells/field in [9] (setting [11]) and 0.87 ± 0.04 positive cells/field in test [9] (setting [12]).
